One may read the IC50 as the concentration that inhibits the measured activity by half.

Calls of active or inactive are those of the source. No cut-off for these calls is given here.

For experiment [1], the system named is MCF7. The experiment can be described thus: Induction of apoptosis in human MCF7 cells assessed as early apoptotic cells at 5 uM measured after 48 hrs by Annexin V and dead cell kit analysis (reference value: 0.65%). The format is functional.
The nature of experiment [2]: Up regulation of HIF1 expression in human PANC-1 cells at 0.5 to 5 uM measured after 24 hrs by Western blot analysis relative to control. Conditions: dose 0.5-5 µM. The format is functional.
The subject of experiment [3] is MCF7. Kind of experiment: Cell cycle arrest in human MCF7 cells assessed as accumulation at G2/M-phase at 7.5 uM measured after 24 hrs by muse cell analyser (reference value: 30.92 to 33.6%). The format is functional.
The subject of experiment [4] is PANC-1. Kind of experiment: Induction of apoptosis in human PANC-1 cells assessed as late apoptotic cells at 5 uM measured after 48 hrs by Annexin V and dead cell kit analysis (reference value: 2.4%). It counts as functional.
Experiment [5] has as its system MCF7. Kind of experiment: Cytotoxicity against human MCF7 cells assessed as reduction in cell viability measured after 72 hrs by MTS assay. It counts as functional, cell-based. Conditions: MCF7, 72 h.
For experiment [6], the system named is PANC-1. Kind of experiment: Induction of apoptosis in human PANC-1 cells assessed as late apoptotic cells at 7.5 uM measured after 48 hrs by Annexin V and dead cell kit analysis (reference value: 2.4%). The format is functional.
For experiment [7], the system named is MCF7. The experiment can be described thus: Cell cycle arrest in human MCF7 cells assessed as accumulation at G0/G1-phase at 5 uM measured after 24 hrs by muse cell analyser (reference value: 52.65 to 53.3%). The format is functional.
For experiment [8], the system named is MCF7. The experiment can be described thus: Cell cycle arrest in human MCF7 cells assessed as accumulation at S-phase at 5 uM measured after 24 hrs by muse cell analyser (reference value: 9.9 to 11.66%). The format is functional.
Experiment [9] relates to PANC-1. Kind of experiment: Effect on cdc2 expression in human PANC-1 cells at 0.5 to 5 uM measured after 24 hrs by Western blot analysis. The format is functional, cell-based. Conditions: dose 0.5-5 µM. (In general: Immunoblotting shows a protein as a band on a membrane.)
A further experiment concerns HCT-116. Kind of experiment: Cytotoxicity against human HCT-116 cells assessed as reduction in cell viability measured after 72 hrs by MTS assay. The format is functional, cell-based. Conditions: HCT-116, 72 h. (In general: Tetrazolium dyes change colour on reduction, which living cells bring about.)
The subject of experiment [10] is PANC-1. The experiment can be described thus: Induction of apoptosis in human PANC-1 cells measured after 48 hrs by Annexin V and dead cell kit analysis. It counts as functional, cell-based. Conditions: dose 5-7.5 µM.
The test system of experiment [11] is MCF7. The experiment can be described thus: Up regulation of p53 expression in human MCF7 cells at 1 to 5 uM measured after 24 hrs by Western blot analysis. It counts as functional, cell-based. The following applies: dose 1-5 µM.
Experiment [12] deals with PANC-1. The experiment can be described thus: Induction of autophagy in human PANC-1 cells assessed as increase in LC3 expression at 1 uM measured after 24 hrs by muse cell analyzer based fluorescence assay relative to control. It counts as functional.
For experiment [13], the system named is PANC-1. Kind of experiment: Cell cycle arrest in human PANC-1 cells assessed as accumulation at G0/G1-phase at 7.5 uM measured after 24 hrs by muse cell analyser (reference value: 48.28 to 48.7%). The format is functional.
The subject of experiment [14] is PANC-1. Kind of experiment: Up regulation of p21 expression in human PANC-1 cells at 0.5 uM measured after 24 hrs by Western blot analysis. The format is functional, cell-based.
For experiment [15], the system named is MCF7. The experiment can be described thus: Induction of apoptosis in human MCF7 cells assessed as late apoptotic cells at 7.5 uM measured after 48 hrs by Annexin V and dead cell kit analysis (reference value: 1.45%). The format is functional.
The test system of experiment [16] is MCF7. The experiment can be described thus: Down regulation of p21 expression in human MCF7 cells at 5 uM measured after 24 hrs by Western blot analysis. It counts as functional, cell-based.
In experiment [17] the test system is PANC-1. The experiment can be described thus: Induction of apoptosis in human PANC-1 cells assessed as necrotic cells at 7.5 uM measured after 48 hrs by Annexin V and dead cell kit analysis (reference value: 1.05%). The format is functional.

For the compound `c1ccc(-c2cn(-c3ccc(-c4cc(-c5ccccn5)nc(-c5ccccn5)c4)cc3)nn2)nc1`, the Activity in the experiment on MCF7 [1] is given as 10.6%; in the experiment with MCF7 [3], 22%; in the experiment on PANC-1 [4], 8.75%; in the experiment with PANC-1 [6], 4.55%; in the experiment with MCF7 [7] it was 55.97%; in the experiment with MCF7 [8], 12.1%. In addition, the Activity entry in the experiment with PANC-1 [10] is “Dose-dependent effect”; in the experiment with PANC-1 [13], 58.75%; in the experiment with MCF7 [15] it was 17.45%; in the experiment with PANC-1 [17], 1.8%. Besides, the “fold change (FC)” value in experiment [2] is recorded as 30; with PANC-1 [12], 2.2. In addition, the IC50 in the experiment on MCF7 [5] is 407 nM; in the experiment on HCT-116 it was 243 nM. The outcome in the experiment on PANC-1 [9] and with MCF7 [11] was inactive. Further, the outcome in the experiment with PANC-1 [14] and in the experiment with MCF7 [16] was Active.

Source of the values: ChEMBL document CHEMBL4706629, “New derivatives of 4'-phenyl-2,2':6',2″-terpyridine as promising anticancer agents” (Eur J Med Chem, 2021).
